Reference: BindingDB's records for PubMed 37257213 (Birla Institute of Technology and Science Pilani)

Target: Trypanothione reductase (UniProt P39050)
Test: Inhibition of Leishmania donovani Trypanothione reductase

Trypanothione reductase, sequence (P39050 whole entry): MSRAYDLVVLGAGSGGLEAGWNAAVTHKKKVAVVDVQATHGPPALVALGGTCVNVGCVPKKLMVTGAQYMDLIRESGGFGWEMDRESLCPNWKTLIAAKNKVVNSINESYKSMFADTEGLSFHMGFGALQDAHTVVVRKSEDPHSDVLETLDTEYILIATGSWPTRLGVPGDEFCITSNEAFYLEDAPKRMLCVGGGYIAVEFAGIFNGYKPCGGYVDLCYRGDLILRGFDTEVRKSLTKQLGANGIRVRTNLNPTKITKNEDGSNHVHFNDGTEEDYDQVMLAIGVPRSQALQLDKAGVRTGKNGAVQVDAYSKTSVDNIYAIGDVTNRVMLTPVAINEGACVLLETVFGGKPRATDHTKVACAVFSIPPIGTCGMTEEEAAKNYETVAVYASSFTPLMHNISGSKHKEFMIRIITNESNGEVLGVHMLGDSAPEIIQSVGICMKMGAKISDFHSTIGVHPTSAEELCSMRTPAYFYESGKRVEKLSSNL

Compound: CN(C)c1ncnc2c1C1(CCCC1)Cc1ccccc1-2 [Name not given]
- IC50: 91 µM
